The assay concerns A498. Nature of the assay: Cell culture and GI50 determination (resazurin). In kind it is cell-based. Particulars: Homo sapiens, A498, 48h incubation. As for the experimental part:
MDA-MB-231 (breast cancer) and KM12 (colon cancer) cells obtained from the UZH Cancer Institute, HOP-92 (lung cancer) cells purchased from the National Cancer Institute (NCl) and A498 (kidney cancer) cells obtained from Prof. Krek (Institute of Cell Biology, ETH Zurich) were cultured in Dulbecco's modified Eagle's medium (DMEM) supplemented with 10% (v/v) fetal bovine serum. K562 leukemia cells obtained from Dr. Silvio Hemmi (Institute of Molecular Life Sciences, UZH) were cultured using RPMI medium supplemented with 5% (v/v) fetal bovine serum. All the media was additionally supplemented with 100 units/mL of penicillin, 100µg/mL of streptomycin, 4.5 g/L glucose, 0.11g/L sodium pyrubate and 2mM glutamine and the cells were grown at 37 °C in 5% CO2 atmosphere with 80% relative humidity.
MDA-MB-231, HT-29, KM12, HOP-92 and A498 cells were plated at 10,000 cells per well (100 µL per well) in 96-well culture dishes and allowed to incubate for 24 h. The old media was removed, the cells were washed with PBS (phosphate-buffered saline) and fresh media was added. A 5 mmol/L solution of inhibitor (in 100% DMSO) was serially diluted in the culture media (12 different concentrations were used) and allowed to incubate for 72 h (MDA-MB-231) or 48h (A498). Control cells were treated with the same DMSO concentrations. After the incubation period the media was once more removed and the cells were washed with PBS to then be incubated with fresh media containing 86 nmol/L resazurin. After 3 hours, the fluorescence was quantified using a fluorescence microplate reader (Biotek, FLx800™) at the respective excitation and emission wavelength of 560 and 590 nm. Resazurin becomes fluorescent under mitochondrial reduction and its emission directly correlates with the metabolic stability of the cells. The measured fluorescence values were corrected from the control samples containing DMSO and GI50 values were determined by plotting the fraction of metabolically active cells against the log of the drug concentration. All measurements were performed at least in triplicate.
Background: The colour change of resazurin is a common sign of viable cells or microbes.

Broadly, the GI50 is the concentration that inhibits growth by half. Higher therefore signals less potent growth inhibition. `COc1ccc(C)c(-n2c(N)c(C(N)=O)c3nc4ccccc4nc32)c1` [Compound 8, 2-Amino-1-(5-methoxy-2-methylphenyl)-1H-pyrrolo[2,3-b]quinoxaline-3-carboxamide, reference compound] had a 50% growth inhibitory concentration (GI50) of 59.3 µM.

The values above are taken from EP2924040A1, “2-Amino-1-(o-tolyl)pyrrolo[3,2-b]quinoxaline-3-carboxamide derivates” (Universität Zürich, priority 2014, dated 2015).
